Data as given in patent US8609173B2, “Compositions comprising sweetness enhancers and methods of making them” (Senomyx Inc., priority 2008, dated 2013).

Tests used:
Assay type in all cases: in vivo, Human
Panelists [1] = experiment: Paired comparison taste test, Example 7, sucrose or fructose solutions
Procedure: (§1) Several types of sensory tests were used to determine the efficacy of 3-(4-amino-2,2-dioxide-1H-benzo[c][1,2,6]thiadiazin-5-yloxy)-2′,2′-dimethyl-N-propylpropanamide 3-(4-amino-2,2-dioxide-1H-benzo[c][1,2,6]thiadiazin-5-yloxy)-2′,2′-dimethyl-N-propylpropanamide in enhancing the sweetness of sucrose. Two types of tests were conducted: • 1) Sensory scaling tests were performed using a 15-point percent sucrose equivalence scale for sweetness in order to evaluate sweetness enhancement 3-(4-amino-2,2-dioxide-1H-benzo[c][1,2,6]thiadiazin-5-yloxy)-2′,2′-dimethyl-N-propylpropanamide 3-(4-amino-2,2-dioxide-1H-benzo[c][1,2,6]thiadiazin-5-yloxy)-2′,2′-dimethyl-N-propylpropanamide in sucrose or in fructose. • 2) Paired comparison tests (2-alternative forced choice difference tests) were used to determine sweetness equivalence for solutions of sucrose vs. 3-(4-amino-2,2-dioxide-1H-benzo[c][1,2,6]thiadiazin-5-yloxy)-2′,2′-dimethyl-N-propylpropanamide 3-(4-amino-2,2-dioxide-1H-benzo[c][1,2,6]thiadiazin-5-yloxy)-2′,2′-dimethyl-N-propylpropanamide or buffer vs. 3-(4-amino-2,2-dioxide-1H-benzo[c][1,2,6]thiadiazin-5-yloxy)-2′,2′-dimethyl-N-propylpropanamide 3-(4-amino-2,2-dioxide-1H-benzo[c][1,2,6]thiadiazin-5-yloxy)-2′,2′-dimethyl-N-propylpropanamide. Stimuli:
Panelists evaluated two solutions in a paired comparison taste test procedure. They were instructed to select the sweeter of the two samples. They were also asked to comment on how difficult it was to tell the difference in sweetness between both samples and if any off tastes were perceived.
(§2) Panelists evaluated two solutions in a paired comparison taste test procedure and were instructed to select the sweeter of the two samples.

External panelists = experiment: Line scale (15-point sucrose equivalence) sensory test, Example 5, sucrose or LSB, pH 7.1
Procedure: as §1
Tests were performed with sucrose or fructose. The sweetener was evaluated with and/or without 3-(4-amino-2,2-dioxide-1H-benzo[c][1,2,6]thiadiazin-5-yloxy)-2′,2′-dimethyl-N-propylpropanamide 3-(4-amino-2,2-dioxide-1H-benzo[c][1,2,6]thiadiazin-5-yloxy)-2′,2′-dimethyl-N-propylpropanamide at the appropriate concentration(s).
3-(4-amino-2,2-dioxide-1H-benzo[c][1,2,6]thiadiazin-5-yloxy)-2′,2′-dimethyl-N-propylpropanamide was prepared as a concentrated stock solution in ethanol to ensure dissolution of the 3-(4-amino-2,2-dioxide-1H-benzo[c][1,2,6]thiadiazin-5-yloxy)-2′,2′-dimethyl-N-propylpropanamide. Therefore, all taste solutions contained ethanol in the final solution. Samples without 3-(4-amino-2,2-dioxide-1H-benzo[c][1,2,6]thiadiazin-5-yloxy)-2′,2′-dimethyl-N-propylpropanamide also contained an equivalent concentration of ethanol. For samples involving 3-(4-amino-2,2-dioxide-1H-benzo[c][1,2,6]thiadiazin-5-yloxy)-2′,2′-dimethyl-N-propylpropanamide at 5-10 ppm (up to 28 μM), the final concentration of ethanol was 0.2%; 30-40 μM, 0.4% ethanol; 50 μM, 0.5% ethanol; and 100 μM, 1% ethanol.
Taste samples were also prepared in low sodium phosphate buffer (pH 7.1; “LSB”) lacking sucrose to evaluate the taste of 3-(4-amino-2,2-dioxide-1H-benzo[c][1,2,6]thiadiazin-5-yloxy)-2′,2′-dimethyl-N-propylpropanamide alone. Low sodium phosphate buffer consists of 0.3 mM KCl, 0.5 mM Na2HPO4, and 0.175 mM KH2PO4.
In scaling test situations, the samples were rated on a 15-point scale for sweetness, ranging from 0=0% sucrose to 15=15% sucrose. To evaluate attributes other than sweetness, references are used for training and are prepared according to the table below. Note that each reference was given a score of 5 on the 15-point scale.
External panelists were used for the tests. The exact number of panelists is reported with test results. Subjects were instructed not to eat or drink anything (except water) for at least 1 hour prior to the test.
Panelists rinsed their mouths with water prior to starting any test. Samples were presented to panelists in a randomized, counterbalanced order. Panelists rinsed with water and had up to a 1 minute delay to clear the mouth of any tastes after each evaluation. Two replicates of each test were performed, unless otherwise noted.
In scaling tests, panelists rate samples monadically for the attributes listed above (see Stimuli). In paired comparison tests, panelists taste pairs of solutions and indicate which sample is perceived to be sweeter.
Attributes of interest are reported for each scaling taste test.
Panelists rinsed their mouths with water prior to starting any test. Samples were presented to panelists in a randomized, counterbalanced order. […]

Panelists [2] = experiment: Paired comparison taste test, cola composition; details: for Sweetness comparison (conclusion): p>0.10; for Sample selected as sweeter by panelists, Total: vs Cola with 100% Sucrose, n = 39
Procedure: Cola compositions were prepared using the following ingredients and evaluated for sweetness and/or lingering taste.
The cola emulsion, above, contains the ingredients below:
as §2

**Q.** `CCCNC(=O)C(C)(C)COc1cccc2c1C(N)=NS(=O)(=O)N2` [3-(4-amino-2,2-dioxide-1H-benzo[c][1,2,6]thiadiazin-5-yloxy)-2′,2′-dimethyl-N-propylpropanamide] was tested. Which “Sample selected as more sweet by panelists, Total” value (Panelists [1]; 28 μM (9.9 ppm) compound chosen, vs 1% Sucrose, n = 32) did it give?
**A.** 4

**Q.** What about the “Sweetness comparison (conclusion)” value (Panelists [1]; 28 μM compound vs 1% sucrose) of the same compound?
**A.** 1% sucrose was significantly sweeter

**Q.** And the “Sample selected as sweeter by panelists, Test 1” value (Panelists [1]; 6% Fructose + 25 μM (8.9 ppm) compound chosen, vs 6% Fructose, N = 25)?
**A.** 20

**Q.** What about the “Sample selected as more sweet by panelists, Test 1” value (Panelists [1]; 6% Fructose + 25 μM (8.9 ppm) compound chosen, vs 7% Fructose, N = 25) of the same compound?
**A.** 12

**Q.** And the “Sweetness comparison (conclusion)” value (Panelists [1]; 6% fructose + 25 μM compound vs 6% fructose, p<0.05)?
**A.** significantly sweeter than 6% fructose

**Q.** What about the “Sweetness comparison (conclusion)” value (Panelists [1]; 6% fructose + 25 μM compound vs 7% fructose) of the same compound?
**A.** no significant difference in sweetness

**Q.** And the off tastes (External panelists; 25.0 μM (8.9 ppm) compound on its own)?
**A.** no significant off tastes

**Q.** What about the “Average Sweetness” value (External panelists; 25 μM (8.9 ppm) compound on its own, pH 7, n = 30) of the same compound?
**A.** 0.6

**Q.** What about the “Sweetness vs sucrose solutions (conclusion)” value (“Sweetness vs sucrose solutions” below) (External panelists; 25.0 μM (8.9 ppm) compound on its own, p>0.10) of the same compound?
**A.** not significantly different in sweetness than 0% sucrose

**Q.** What about the “Average Bitterness” value (External panelists; 25 μM compound on its own, n = 30) of the same compound?
**A.** 0.2

**Q.** What about the “Average Sweetness” value (External panelists; 50 μM (17.7 ppm) compound on its own in LSB, pH 7.1, n = 14) of the same compound?
**A.** 1.3

**Q.** What about the bitter off tastes (External panelists; 50 μM compound in LSB, pH 7.1) of the same compound?
**A.** no significant bitter off tastes

**Q.** What about the off tastes (External panelists; 50 μM compound on its own in LSB) of the same compound?
**A.** no significant off tastes

**Q.** And the “Average Bitterness” value (External panelists; 1% Sucrose + 5 ppm (14.11 μM) compound, n = 30)?
**A.** 0.4

**Q.** And the “Average Sweetness” value (External panelists; 1% Sucrose + 5 ppm (14.11 μM) compound, pH 7.1, n = 30)?
**A.** 2.5

**Q.** What about the “Sweetness vs sucrose solutions” value (External panelists; 1% sucrose + 5 ppm compound, p>0.10) of the same compound?
**A.** not significantly different in sweetness than 2% sucrose

**Q.** What about the off tastes (External panelists; 1-10 ppm compound in 6% sucrose, LSB, pH 7.1) of the same compound?
**A.** no significant off tastes

**Q.** And the “Average Sweetness” value (External panelists; 2% Sucrose + 25 μM (8.9 ppm) compound, pH 7.1, n = 28)?
**A.** 5.6

**Q.** What about the “Average Bitterness” value (External panelists; 2% Sucrose + 25 μM compound, n = 28) of the same compound?
**A.** 0.3

**Q.** What about the “Average Bitterness” value (External panelists; 2% Sucrose + 5 ppm (14.11 μM) compound, n = 30) of the same compound?
**A.** 0.2

**Q.** And the “Average Sweetness” value (External panelists; 2% Sucrose + 5 ppm (14.11 μM) compound, pH 7.1, n = 30)?
**A.** 4.6

**Q.** And the “Sweetness vs sucrose solutions” value (External panelists; 2% sucrose + 5 ppm compound)?
**A.** not significantly different in sweetness than 4% sucrose

**Q.** What about the “Sweetness vs sucrose solutions” value (External panelists; 2% sucrose + 8.9 ppm compound, p>0.10) of the same compound?
**A.** not significantly different in sweetness than 6% sucrose

**Q.** And the “Average Sweetness” value (External panelists; 4% Sucrose + 25 μM (8.9 ppm) compound, pH 7.1, n = 28)?
**A.** 8.3

**Q.** And the “Average Bitterness” value (External panelists; 4% Sucrose + 25 μM compound, n = 28)?
**A.** 0.3

**Q.** What about the “Average Bitterness” value (External panelists; 4% Sucrose + 5 ppm (14.11 μM) compound, n = 30) of the same compound?
**A.** 0.2

**Q.** What about the “Average Sweetness” value (External panelists; 4% Sucrose + 5 ppm (14.11 μM) compound, pH 7.1, n = 30) of the same compound?
**A.** 8.1

**Q.** And the “Sweetness vs sucrose solutions” value (External panelists; 4% sucrose + 5 ppm compound, p>0.10)?
**A.** not significantly different in sweetness than 8% sucrose

**Q.** And the “Sweetness vs sucrose solutions” value (External panelists; 4% sucrose + 8.9 ppm compound, p>0.10)?
**A.** not significantly different in sweetness than 8% sucrose

**Q.** What about the off tastes (External panelists; 5 ppm compound in 1-6% sucrose, LSB, pH 7.1) of the same compound?
**A.** no significant off tastes

**Q.** And the “Average Sweetness” value (External panelists; 6% Sucrose + 25 μM (8.9 ppm) compound, pH 7.1, n = 24)?
**A.** 10.6

**Q.** What about the “Sweetness vs sucrose solutions” value (External panelists; 6% Sucrose + 25 μM compound, p>0.10) of the same compound?
**A.** not significantly different in sweetness than 10% or 12% sucrose

**Q.** What about the “Average Bitterness” value (External panelists; 6% Sucrose + 25 μM compound, pH 7.1, n = 24) of the same compound?
**A.** 0.1

**Q.** And the “Average Sweetness” value (External panelists; 6% Sucrose + 50 μM (17.7 ppm) compound, pH 7.1, n = 15)?
**A.** 9.9

**Q.** And the “Sweetness vs sucrose solutions” value (External panelists; 6% Sucrose + 50 μM compound, p>0.10)?
**A.** not significantly different in sweetness compared to 10% or 12% Sucrose

**Q.** What about the “Average Bitterness” value (External panelists; 6% Sucrose + 50 μM compound, pH 7.1, n = 15) of the same compound?
**A.** 0.2

**Q.** What about the “Average Bitterness” value (External panelists; 6% Sucrose + 1 ppm (2.82 μM) compound, n = 30) of the same compound?
**A.** 0.7

**Q.** And the “Average Sweetness” value (External panelists; 6% Sucrose + 1 ppm (2.82 μM) compound, pH 7.1, n = 30)?
**A.** 7.5

**Q.** What about the “Average Bitterness” value (External panelists; 6% Sucrose + 2 ppm (5.64 μM) compound, n = 30) of the same compound?
**A.** 0.4

**Q.** And the “Average Sweetness” value (External panelists; 6% Sucrose + 2 ppm (5.64 μM) compound, pH 7.1, n = 30)?
**A.** 8.0

**Q.** And the “Average Bitterness” value (External panelists; 6% Sucrose + 4 ppm (11.29 μM) compound, n = 30)?
**A.** 0.4

**Q.** What about the “Average Sweetness” value (External panelists; 6% Sucrose + 4 ppm (11.29 μM) compound, pH 7.1, n = 30) of the same compound?
**A.** 10.1

**Q.** And the “Average Bitterness” value (External panelists; 6% Sucrose + 5 ppm (14.11 μM) compound, n = 30)?
**A.** 0.4

**Q.** What about the “Average Sweetness” value (External panelists; 6% Sucrose + 5 ppm (14.11 μM) compound, pH 7.1, n = 30) of the same compound?
**A.** 10.2

**Q.** And the “Average Bitterness” value (External panelists; 6% Sucrose + 7 ppm (19.75 μM) compound, n = 30)?
**A.** 0.3

**Q.** What about the “Average Sweetness” value (External panelists; 6% Sucrose + 7 ppm (19.75 μM) compound, pH 7.1, n = 30) of the same compound?
**A.** 10.3

**Q.** And the “Sweetness vs sucrose solutions” value (External panelists; 6% Sucrose + 7 ppm compound, p>0.10)?
**A.** not significantly different than 10% or 12% sucrose

**Q.** And the “Average Bitterness” value (External panelists; 6% Sucrose + 10 ppm (28.22 μM) compound, n = 30)?
**A.** 0.6

**Q.** What about the “Average Sweetness” value (External panelists; 6% Sucrose + 10 ppm (28.22 μM) compound, pH 7.1, n = 30) of the same compound?
**A.** 10.9

**Q.** What about the “Sweetness vs sucrose solutions” value (External panelists; 6% Sucrose + 10 ppm compound, p>0.10) of the same compound?
**A.** not significantly different than 10% or 12% sucrose

**Q.** What about the off tastes (External panelists; 6% sucrose + 25 μM compound) of the same compound?
**A.** no significant off tastes

**Q.** What about the “Sweetness vs sucrose solutions” value (External panelists; 6% sucrose + 4 ppm compound, p>0.10) of the same compound?
**A.** not significantly different than 10% sucrose

**Q.** And the off tastes (External panelists; 8.9 ppm compound in 2-4% sucrose, LSB, pH 7.1)?
**A.** no significant off tastes

**Q.** What about the “Sweetness comparison (conclusion)” value (Panelists [2]; 60% sucrose cola + 3 ppm (8.47 μM) compound vs 100% sucrose cola) of the same compound?
**A.** no significant difference in sweetness

**Q.** What about the “Sweetness comparison (conclusion)” value (Panelists [2]; 66% sucrose cola + 3.19 ppm (8.47 μM) compound vs 100% sucrose cola) of the same compound?
**A.** no significant difference in sweetness

**Q.** And the “Sample selected as sweeter by panelists, Total” value (Panelists [2]; Cola with 60% Sucrose + 3 ppm (8.47 μM) compound chosen)?
**A.** 18

**Q.** What about the “Sample selected as sweeter by panelists, Total” value (Panelists [2]; Cola with 66% Sucrose + 3.19 ppm (8.47 μM) compound chosen) of the same compound?
**A.** 22

**Q.** And the “Sweetness comparison (statement)” value (Panelists [2]; cola with reduced sucrose + 3 ppm or 3.19 ppm compound vs 100% sucrose cola)?
**A.** approximately the same sweetness
